Reference: BindingDB's records for doi:10.1016/j.ejmech.2013.04.003 (Seoul National University, 2013)

Tests used:
[1] = molecular target: T1, Transient receptor potential cation channel subfamily V member 1 (Homo sapiens, UniProt Q8NER1); assay: Antagonist activity at human TRPV1 expressed in CHOK1 cells assessed as inhibition of capsaicin-induced activity by FLIPR assay
[2] = molecular target: T1, Transient receptor potential cation channel subfamily V member 1; assay: Antagonist activity at human TRPV1 expressed in CHOK1 cells assessed as inhibition of pH 6 to 6.3-induced activity by FLIPR assay

T1 sequence (Q8NER1 whole entry): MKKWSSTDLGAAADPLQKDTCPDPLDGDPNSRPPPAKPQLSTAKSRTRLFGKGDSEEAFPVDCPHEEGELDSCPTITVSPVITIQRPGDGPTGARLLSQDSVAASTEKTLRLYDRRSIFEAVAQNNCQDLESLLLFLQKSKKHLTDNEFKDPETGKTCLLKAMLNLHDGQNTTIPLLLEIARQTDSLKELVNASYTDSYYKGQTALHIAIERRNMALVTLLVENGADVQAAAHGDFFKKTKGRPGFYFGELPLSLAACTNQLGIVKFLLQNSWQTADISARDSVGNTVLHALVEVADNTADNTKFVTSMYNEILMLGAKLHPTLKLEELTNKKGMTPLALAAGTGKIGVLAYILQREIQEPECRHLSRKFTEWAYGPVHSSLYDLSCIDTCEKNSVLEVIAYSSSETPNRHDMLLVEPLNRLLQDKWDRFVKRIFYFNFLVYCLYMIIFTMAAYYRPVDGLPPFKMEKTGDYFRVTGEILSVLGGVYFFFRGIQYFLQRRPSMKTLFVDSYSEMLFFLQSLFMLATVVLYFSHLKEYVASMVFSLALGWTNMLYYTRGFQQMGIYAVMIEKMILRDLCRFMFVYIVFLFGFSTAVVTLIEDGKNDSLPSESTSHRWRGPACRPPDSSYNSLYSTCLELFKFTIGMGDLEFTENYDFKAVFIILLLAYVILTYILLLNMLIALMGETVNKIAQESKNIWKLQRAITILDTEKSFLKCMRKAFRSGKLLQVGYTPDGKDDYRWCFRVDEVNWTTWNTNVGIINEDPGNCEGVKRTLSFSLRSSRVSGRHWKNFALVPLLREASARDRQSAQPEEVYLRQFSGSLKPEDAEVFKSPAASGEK

Compound: CC(C(=O)NCc1ccc(C(F)(F)F)nc1OCCCOc1ccccc1)c1ccc(NS(C)(=O)=O)c(F)c1 (configuration not stated)
- Ki [1]: 1.5 nM
- IC50 [2]: 161 nM
